A short description of the series: Solubility. Format: physicochemical. To be noted: for solubility in water: H2O.

SMILES strings stand for the structures.

The record followed here is patent US7939332B2, “Detection of analytes in aqueous environments” (Sensors for Medicine and Science, Inc., priority 2000, dated 2011).

Consider `C=C(C)C(=O)NCCCN(Cc1ccccc1B(O)O)Cc1c2ccccc2cc2ccccc12` [9-[[N-methacryloylaminopropyl-N-(o-boronobenzyl)amino]methyl]anthracene], for which the solubility in water result was “Limited solubility in H2O”. Also, for the setting “CH2Cl2, CHCl3, THF, CH3OH, C2H5OH”, the “solubility in organic solvents” value was “soluble in CH2Cl2, CHCl3, THF, CH3OH, and C2H5OH”. In addition, the solubility in water result (listed as anthracene derivative of Examples 1 and 2) is “insoluble in water”. Moreover, the solubility in methanol result (methanol, with respect to observing excimer characteristics) is on record as “insufficiently soluble”.

Under “PBS (pH 7.4)”, `C=C(C)C(=O)NCCCN(Cc1ccc(CN(CCCNC(=O)C(=C)C)Cc2ccccc2B2OCC(C)(C)CO2)cc1)Cc1ccccc1B1OCC(C)(C)CO1` [bis boronic acid monomer, α,α′-bis[N-[2-(5,5-dimethyl-1,3,2]dioxaborinan-2-yl)-benzyl]-N-[3-(methacrylamido)propylamino]-1,4-xylene] had a maximum solubility of 1000 µM.
